The nature of data set [1]: Determination of the microsomal half-life / microsomal clearance, rat. It counts as in vitro ADME. The conditions noted are these: rat liver microsomes, 0.5 μM test substance, 0.25 mg microsomal protein/ml, NADPH, 37° C. On the procedure:
(§1) The metabolic stability of the compounds of the invention was determined in the following assay.
(§2) The test substances were incubated in a concentration of 0.5 μM as follows:
(§3) 0.5 μM test substance are preincubated together with liver microsomes from different species (from rat, human or other species) (0.25 mg of microsomal protein/ml) in 0.05 M potassium phosphate buffer of pH 7.4 in microtiter plates at 37° C. for 5 min. The reaction is started by adding NADPH (1 mg/mL). After 0, 5, 10, 15, 20 and 30 min, 50 μl aliquots are removed, and the reaction is immediately stopped and cooled with the same volume of acetonitrile. The samples are frozen until analyzed. The remaining concentration of undegraded test substance is determined by MSMS. The half-life (T½) is determined from the gradient of the signal of test substance/unit time plot, it being possible to calculate the half-life of the test substance, assuming first order kinetics, from the decrease in the concentration of the compound with time. The microsomal clearance (mCl) is calculated from mCl=ln 2/T½/(content of microsomal protein in mg/ml)×1000 [ml/min/mg] (modified from references: Di, The Society for Biomoleculur Screening, 2003, 453-462; Obach, DMD, 1999 vol 27. N 11, 1350-1359).
Background: Liver microsomes are vesicles of endoplasmic reticulum, rich in cytochrome P450 enzymes.

The nature of data set [2]: Determination of the microsomal half-life / microsomal clearance, human. The following applies: human liver microsomes, 0.5 μM test substance, 0.25 mg microsomal protein/ml, NADPH, 37° C. It counts as in vitro ADME. On the procedure: as §1, §2, §3
In data set [3] the target is T1, human dopamine D2L receptors (long isoform) (Homo sapiens, UniProt P14416).
T1 construct: expressed in transfected cells; host or cells: HEK-293
T1 sequence (P14416 whole entry, canonical isoform): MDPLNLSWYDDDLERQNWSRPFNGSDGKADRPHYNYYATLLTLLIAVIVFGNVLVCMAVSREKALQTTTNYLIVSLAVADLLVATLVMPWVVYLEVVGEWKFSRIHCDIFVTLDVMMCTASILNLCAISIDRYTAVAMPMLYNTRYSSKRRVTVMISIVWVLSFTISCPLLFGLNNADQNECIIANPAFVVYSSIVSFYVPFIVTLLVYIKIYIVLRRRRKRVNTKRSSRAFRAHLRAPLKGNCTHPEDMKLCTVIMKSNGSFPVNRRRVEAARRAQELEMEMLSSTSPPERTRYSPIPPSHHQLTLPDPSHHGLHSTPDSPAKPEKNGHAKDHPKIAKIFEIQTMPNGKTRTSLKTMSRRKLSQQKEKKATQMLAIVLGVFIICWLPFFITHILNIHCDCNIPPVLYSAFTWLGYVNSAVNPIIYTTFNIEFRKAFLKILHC
Briefly: Receptor binding study, dopamine D2L receptor ([125I]iodospiperone displacement), selectivity vs D3. The conditions noted are these: selectivity ratio, HEK-293 membranes. How it is done:
(§4) The substance to be tested was either dissolved in methanol/Chremophor® (BASF SE) or in dimethyl sulfoxide and then diluted with water to the desired concentration.
(§5) Each assay mixture was run in triplicate. • The incubation buffer contained 50 mM tris, 120 mM NaCl, 5 mM KCl, 2 mM CaCl2, 2 mM MgCl2 and 0.1% bovine serum albumin, 10 μM quinolone and 0.1% ascorbic acid (prepared fresh daily). […] Each assay mixture was run in triplicate. • The incubation buffer contained 50 mM tris, 120 mM NaCl, 5 mM KCl, 2 mM CaCl2, 2 mM MgCl2 and 0.1% bovine serum albumin. The buffer was adjusted to pH 7.4 with HCl. c) Measurement and Analysis: • After having been incubated at 25° C. for 60 minutes, the assay mixtures were filtered through a Whatman GF/B glass fiber filter under vacuum using a cell collecting device. The filters were transferred to scintillation viols using a filter transfer system. After 4 ml of Ultima Gold® (Packard) have been added, the samples were shaken for one hour and the radioactivity was then counted in a Beta-Counter (Packard, Tricarb 2000 or 2200CA).

For data set [4], the target named is T2, human dopamine D3 receptors (Homo sapiens, UniProt P35462).
T2 construct: expressed in transfected cells; host or cells: HEK-293
T2 sequence (P35462 whole entry): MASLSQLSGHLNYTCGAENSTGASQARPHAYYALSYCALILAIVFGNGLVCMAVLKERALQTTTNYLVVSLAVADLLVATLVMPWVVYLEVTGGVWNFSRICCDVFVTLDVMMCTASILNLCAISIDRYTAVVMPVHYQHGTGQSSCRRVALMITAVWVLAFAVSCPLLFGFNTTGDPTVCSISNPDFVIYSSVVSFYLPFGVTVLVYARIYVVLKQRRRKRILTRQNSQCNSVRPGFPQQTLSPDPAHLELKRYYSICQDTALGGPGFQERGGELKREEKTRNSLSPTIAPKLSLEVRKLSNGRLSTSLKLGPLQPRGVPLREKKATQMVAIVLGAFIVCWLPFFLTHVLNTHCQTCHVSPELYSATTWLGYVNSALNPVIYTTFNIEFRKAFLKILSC
Briefly: Receptor binding study, dopamine D3 receptor ([125I]-iodosulpride displacement). The following applies: membranes of HEK-293 cells, 0.1 nM [125I]-iodosulpride, 25° C., 60 minutes. On the procedure:
as §4, §5

Bounds are passed on as bounds.

As for `COCCc1cc(N2CCN(CC[C@H]3CC[C@@H](NC(C)=O)CC3)CC2)nc(C(C)(C)C)n1` [Compound 3, cis-N-[4-(2-{4-[2-tert-Butyl-6-(2-methoxy-ethyl)-pyrimidin-4-yl]-piperazin-1-yl}-ethyl)-cyclohexyl]-acetamide], the “Rat mCl” value in data set [1] is listed as “+ (+: 20-120 μl min^−1 mg^−1)”. Besides, in data set [2], the “Human mCl” value is “+ (+: 20-120 μl min^−1 mg^−1)”.
On to `COCCc1cc(N2CCN(CC[C@H]3C[C@@H](NC(C)=O)C3)CC2)nc(C(C)(C)C)n1.O=C(O)C(F)(F)F` [Compound 4a, cis-N-[3-(2-{4-[2-tert-Butyl-6-(2-methoxy-ethyl)-pyrimidin-4-yl]-piperazin-1-yl}-ethyl)-cyclobutyl]-acetamide trifluoroacetate], for which, in data set [1], the “Rat mCl” value was “+ (+: 20-120 μl min^−1 mg^−1)”. Also, in data set [2], the “Human mCl” value was “+ (+: 20-120 μl min^−1 mg^−1)”.
`COCCc1cc(N2CCN(CC[C@H]3C[C@H](NC(C)=O)C3)CC2)nc(C(C)(C)C)n1.O=C(O)C(F)(F)F` [Compound 4b, trans-N-[3-(2-{4-[2-tert-Butyl-6-(2-methoxy-ethyl)-pyrimidin-4-yl]-piperazin-1-yl}-ethyl)-cyclobutyl]-acetamide trifluoroacetate]: in data set [1], the “Rat mCl” value is listed as “+ (+: 20-120 μl min^−1 mg^−1)”. Also, the “D2/D3 (Ki (D2L)/Ki (D3))” value in data set [3] is “+++ (+++>50)”. The Ki in data set [4] was under 50 nM. The “Human mCl” value in data set [2] is “+ (+: 20-120 μl min^−1 mg^−1)”.
With `COCCc1cc(N2CCN(CC[C@H]3CC[C@H](NC(C)=O)CC3)[C@H](C)C2)nc(C(C)(C)C)n1` [Compound 5, trans-N-[4-(2-{(2R)-4-[2-tert-Butyl-6-(2-methoxy-ethyl)-pyrimidin-4-yl]-2-methyl-piperazin-1-yl}-ethyl)-cyclohexyl]-acetamide], the “Rat mCl” value in data set [1] is “+ (+: 20-120 μl min^−1 mg^−1)”. Moreover, in data set [3], the “D2/D3 (Ki (D2L)/Ki (D3))” value was “+++ (+++>50)”. This compound also registered a Ki in data set [4] of under 50 nM. In data set [2], the “Human mCl” value is listed as “+ (+: 20-120 μl min^−1 mg^−1)”.
As for `COCCc1cc(N2CCN(CC[C@H]3CC[C@H](NC(C)=O)CC3)C[C@@H]2C)nc(C(C)(C)C)n1` [Compound 8, trans-N-[4-(2-{(3S)-4-[2-tert-Butyl-6-(2-methoxy-ethyl)-pyrimidin-4-yl]-3-methyl-piperazin-1-yl}-ethyl)-cyclohexyl]-acetamide], the “Rat mCl” value in data set [1] was “+ (+: 20-120 μl min^−1 mg^−1)”. For the same compound, the “D2/D3 (Ki (D2L)/Ki (D3))” value in data set [3] is recorded as “+++ (+++>50)”. Further, in data set [4], the Ki was under 10 nM. Further, the “Human mCl” value in data set [2] is on record as “+ (+: 20-120 μl min^−1 mg^−1)”.
For `CC(=O)N[C@H]1CC[C@@H](CCN2CCN(c3cc(CCOC(F)(F)F)nc(C(C)(C)C)n3)CC2)CC1` [Compound 10a, cis N-[4-(2-{4-[2-tert-Butyl-6-(2-trifluoromethoxy-ethyl)-pyrimidin-4-yl]-piperazin-1-yl}-ethyl)-cyclohexyl]-acetamide], the “D2/D3 (Ki (D2L)/Ki (D3))” value in data set [3] is “++ (++>20)”. The Ki in data set [4] was under 10 nM.
On to `CC(=O)N[C@H]1CC[C@H](CCN2CCN(c3cc(CCOC(F)(F)F)nc(C(C)(C)C)n3)CC2)CC1` [Compound 10b, trans N-[4-(2-{4-[2-tert-Butyl-6-(2-trifluoromethoxy-ethyl)-pyrimidin-4-yl]-piperazin-1-yl}-ethyl)-cyclohexyl]-acetamide], for which, in data set [1], the “Rat mCl” value was “∘ (∘: >120 μl min^−1 mg^−1)”. In data set [3], the “D2/D3 (Ki (D2L)/Ki (D3))” value is “+ (+>10)”. In data set [4], this compound displayed a Ki of under 10 nM. In addition, in data set [2], the “Human mCl” value is given as “+ (+: 20-120 μl min^−1 mg^−1)”.
Regarding `COCCc1cc(N2CCN(CCC3CC(NC=O)C3)CC2)nc(C(C)(C)C)n1.O=C(O)C(F)(F)F` (centres unmarked) [Compound 12, N-[3-(2-{4-[2-tert-Butyl-6-(2-methoxy-ethyl)-pyrimidin-4-yl]-piperazin-1-yl}-ethyl)-cyclobutyl]-formamide trifluoroacetate], in data set [1], the “Rat mCl” value is “+ (+: 20-120 μl min^−1 mg^−1)”. In data set [3], the “D2/D3 (Ki (D2L)/Ki (D3))” value is recorded as “++ (++>20)”. Moreover, in data set [4], the Ki was under 10 nM. The “Human mCl” value in data set [2] is listed as “+ (+: 20-120 μl min^−1 mg^−1)”.
Turning to `COCCc1cc(N2CCN(CC[C@@H]3CC[C@@H](NC(C)=O)C3)CC2)nc(C(C)(C)C)n1` [Compound 14, trans-N-[(1R,3S)-3-[2-[4-[2-tert-butyl-6-(2-methoxyethyl)pyrimidin-4-yl]piperazin-1-yl]ethyl]cyclopentyl]acetamide], the “Rat mCl” value in data set [1] is “+ (+: 20-120 μl min^−1 mg^−1)”. Further, in data set [3], the “D2/D3 (Ki (D2L)/Ki (D3))” value was “+++ (+++>50)”. The same compound came in with an inhibition constant (Ki) in data set [4] of under 50 nM. In addition, the “Human mCl” value in data set [2] was “+ (+: 20-120 μl min^−1 mg^−1)”.
Turning to `COCCc1cc(N2CCN(CC[C@H]3CC[C@H](NC(C)=O)C3)CC2)nc(C(C)(C)C)n1` [Compound 15, trans-N-[(1S,3R)-3-[2-[4-[2-tert-butyl-6-(2-methoxyethyl)pyrimidin-4-yl]piperazin-1-yl]ethyl]cyclopentyl]acetamide], in data set [1], the “Rat mCl” value was “+ (+: 20-120 μl min^−1 mg^−1)”. For the same compound, in data set [3], the “D2/D3 (Ki (D2L)/Ki (D3))” value was “+++ (+++>50)”. The Ki in data set [4] was under 10 nM. For the same compound, the “Human mCl” value in data set [2] was “+ (+: 20-120 μl min^−1 mg^−1)”.
Take `COCCc1cc(N2CCN(CC[C@@H]3CC[C@H](NC(C)=O)C3)CC2)nc(C(C)(C)C)n1` [Compound 16, cis-N-[(1S,3S)-3-[2-[4-[2-tert-butyl-6-(2-methoxyethyl)pyrimidin-4-yl]piperazin-1-yl]ethyl]cyclopentyl]acetamide]: in data set [1], the “Rat mCl” value was “+ (+: 20-120 μl min^−1 mg^−1)”. Moreover, the “D2/D3 (Ki (D2L)/Ki (D3))” value in data set [3] is recorded as “+++ (+++>50)”. The Ki in data set [4] is under 50 nM. In addition, the “Human mCl” value in data set [2] is “+ (+: 20-120 μl min^−1 mg^−1)”.
For the compound `COCCc1cc(N2CCN(CC[C@H]3C[C@@H](NC=O)C3)CC2)nc(C(C)(C)C)n1` [Compound 17, N-[cis-3-[2-[4-[2-tert-butyl-6-(2-methoxyethyl)pyrimidin-4-yl]piperazin-1-yl]ethyl]cyclobutyl]formamide], the “Rat mCl” value in data set [1] is on record as “+ (+: 20-120 μl min^−1 mg^−1)”. Moreover, the “D2/D3 (Ki (D2L)/Ki (D3))” value in data set [3] was “++ (++>20)”. Also, in data set [4], the Ki was under 50 nM. Moreover, the “Human mCl” value in data set [2] was “+ (+: 20-120 μl min^−1 mg^−1)”.
As to `COCCc1cc(N2CCN(CC[C@H]3C[C@H](NC=O)C3)CC2)nc(C(C)(C)C)n1` [Compound 18, N-[trans-3-[2-[4-[2-tert-butyl-6-(2-methoxyethyl)pyrimidin-4-yl]piperazin-1-yl]ethyl]cyclobutyl]formamide], the “Rat mCl” value in data set [1] is on record as “∘ (∘: >120 μl min^−1 mg^−1)”. For the same compound, the “D2/D3 (Ki (D2L)/Ki (D3))” value in data set [3] is recorded as “++ (++>20)”. Besides, in data set [4], the Ki is under 50 nM. Further, in data set [2], the “Human mCl” value is on record as “+ (+: 20-120 μl min^−1 mg^−1)”.
`COCCc1cc(N2CCN(CC[C@H]3CC[C@H](NC=O)CC3)C[C@H]2C)nc(C(C)(C)C)n1` [Compound 19, trans-N-[4-[2-[(3R)-4-[2-tert-butyl-6-(2-methoxyethyl)pyrimidin-4-yl]-3-methyl-piperazin-1-yl]ethyl]cyclohexyl]formamide]: the “D2/D3 (Ki (D2L)/Ki (D3))” value in data set [3] is “+++ (+++>50)”. For the same compound, the Ki in data set [4] was under 50 nM. In addition, the “Human mCl” value in data set [2] was “+ (+: 20-120 μl min^−1 mg^−1)”.
Take `COCCc1cc(N2CCN(CC[C@H]3CC[C@H](NC=O)CC3)C[C@@H]2C)nc(C(C)(C)C)n1` [Compound 20, trans-N-[4-[2-[(3S)-4-[2-tert-butyl-6-(2-methoxyethyl)pyrimidin-4-yl]-3-methyl-piperazin-1-yl]ethyl]cyclohexyl]formamide]: in data set [1], the “Rat mCl” value is “+ (+: 20-120 μl min^−1 mg^−1)”. For the same compound, the “D2/D3 (Ki (D2L)/Ki (D3))” value in data set [3] is recorded as “+++ (+++>50)”. For the same compound, the Ki in data set [4] was under 10 nM. Moreover, the “Human mCl” value in data set [2] is recorded as “+ (+: 20-120 μl min^−1 mg^−1)”.
In the case of `COCc1cc(N2CCN(CC[C@H]3CC[C@H](NC=O)CC3)CC2)nc(C(C)(C)C)n1` [Compound 21, trans-N-[4-[2-[4-[2-tert-butyl-6-(methoxymethyl)pyrimidin-4-yl]piperazin-1-yl]ethyl]cyclohexyl]formamide], the “Human mCl” value in data set [2] is “+ (+: 20-120 μl min^−1 mg^−1)”.
As to `CC(=O)N[C@H]1CC[C@H](CCN2CCN(c3cc(CCO)nc(C(C)(C)C)n3)C[C@H]2C)CC1` [Compound 26, trans-N-[4-[2-[(2R)-4-[2-tert-butyl-6-(2-hydroxyethyl)pyrimidin-4-yl]-2-methyl-piperazin-1-yl]ethyl]cyclohexyl]acetamide], the “Rat mCl” value in data set [1] was “+ (+: 20-120 μl min^−1 mg^−1)”. Also, the “Human mCl” value in data set [2] is given as “+ (+: 20-120 μl min^−1 mg^−1)”.

What is called Ki is a measure of affinity in units of concentration, obtained from inhibition or displacement. Read a low Ki as a stronger hold on the target.
